# Test results: patent publication US20070003585A1, “Topical skin treating compositions” (STIEFEL LABORATORIES, INC., priority 2005, published 2007)
# Where two headings read alike, the source gives them in different places.
# Columns and labels:
# [1] = Example 13 composition, initial […]
# [2] = Example 6 composition, initial […]
# [3] = Example 7 composition, initial […]
# [4] = Storage stability of composition containing 0.209% of tazarotene and 2.13% of clindamycin (Example 14); assay type: physicochemical; conditions: Example 14 composition, initial 0.209%
# [5] = Storage stability of composition containing 2.02% of benzoyl peroxide and 0.099% of tazarotene (Example 17); assay type: physicochemical; conditions: Example 17 composition, initial […]
# Description: (§1) The results are as follows:
# [6] = Example 12 composition, initial […]
# [7] = Storage stability of composition containing 2.02% of benzoyl peroxide, […] of tazarotene, and […] of clindamycin (Example 9); assay type: physicochemical; conditions: Example 9 composition, initial […]
# [8] = Storage stability of composition containing 2.15% of benzoyl peroxide, […] of tazarotene, and […] of clindamycin (Example 8); assay type: physicochemical; conditions: Example 8 composition, initial […], 6 months
# [9] = Example 15 composition, initial 0.109%
# [10] = Example 11 composition, initial […]
# [11] = Storage stability of composition containing 5.18% of benzoyl peroxide and 0.099% of tazarotene (Example 18); assay type: physicochemical; conditions: Example 18 composition, initial […]
# Description: as §1
# [12] = Storage stability of composition containing […] of tazarotene and […] of clindamycin (Example 16); assay type: physicochemical; conditions: Example 16 composition, initial […], 6 months
smiles,measurement,setting,value
CCOC(=O)c1ccc(C#Cc2ccc3c(c2)C(C)(C)CCS3)nc1 [Tazarotene],Tazarotene (as % w/w),"[1]; 2 weeks, first temperature column (head not given; 6° C. by analogy)",0.097 % w/w
same,Tazarotene (as % w/w),"[1]; 2 weeks, fourth temperature column (head not given; 40° C. by analogy)",0.081 % w/w
same,Tazarotene (as % w/w),"[1]; 2 weeks, second temperature column (head not given; 25° C. by analogy)",0.089 % w/w
same,Tazarotene (as % w/w),"[1]; 2 weeks, third temperature column (head not given; 30° C. by analogy)",0.086 % w/w
same,Tazarotene (as % w/w),"[1]; 6 months, first temperature column (head not given; 6° C. by analogy)",0.098 % w/w
same,Tazarotene (as % w/w),"[1]; 6 months, fourth temperature column (head not given; 40° C. by analogy)",None Detected
same,Tazarotene (as % w/w),"[1]; 6 months, second temperature column (head not given; 25° C. by analogy)",0.085 % w/w
same,Tazarotene (as % w/w),"[1]; 6 months, third temperature column (head not given; 30° C. by analogy)",0.085 % w/w
same,Tazarotene (as % w/w),"[1]; 90 days, first temperature column (head not given; 6° C. by analogy)",0.100 % w/w
same,Tazarotene (as % w/w),"[1]; 90 days, fourth temperature column (head not given; 40° C. by analogy)",0.079 % w/w
same,Tazarotene (as % w/w),"[1]; 90 days, second temperature column (head not given; 25° C. by analogy)",0.090 % w/w
same,Tazarotene (as % w/w),"[1]; 90 days, third temperature column (head not given; 30° C. by analogy)",0.087 % w/w
same,Tazarotene (as % w/w),"[2]; 2 weeks, 25° C.",0.088 % w/w
same,Tazarotene (as % w/w),"[2]; 2 weeks, 30° C.",0.085 % w/w
same,Tazarotene (as % w/w),"[2]; 2 weeks, 40° C.",0.081 % w/w
same,Tazarotene (as % w/w),"[2]; 90 days, 6° C.",0.094 % w/w
same,Tazarotene (as % w/w),"[2]; 90 days, 25° C.",0.090 % w/w
same,Tazarotene (as % w/w),"[2]; 90 days, 30° C.",0.085 % w/w
same,Tazarotene (as % w/w),"[2]; 90 days, 40° C.",0.078 % w/w
same,Tazarotene (as % w/w),"[3]; 2 weeks, 6° C.",0.104 % w/w
same,Tazarotene (as % w/w),"[3]; 2 weeks, 25° C.",0.098 % w/w
same,Tazarotene (as % w/w),"[3]; 2 weeks, 30° C.",0.088 % w/w
same,Tazarotene (as % w/w),"[3]; 2 weeks, 40° C.",0.080 % w/w
same,Tazarotene (as % w/w),"[3]; 6 months, 6° C.",0.106 % w/w
same,Tazarotene (as % w/w),"[3]; 6 months, 25° C.",0.090 % w/w
same,Tazarotene (as % w/w),"[3]; 6 months, 30° C.",0.082 % w/w
same,Tazarotene (as % w/w),"[3]; 6 months, 40° C.",0.046 % w/w
same,Tazarotene (as % w/w),"[4]; 4 weeks, 25° C.",0.208 % w/w
same,Tazarotene (as % w/w),"[4]; 4 weeks, 30° C.",0.208 % w/w
same,Tazarotene (as % w/w),"[4]; 4 weeks, 40° C.",0.205 % w/w
same,Tazarotene (as % w/w),"[4]; 6 months, 25° C.",0.206 % w/w
same,Tazarotene (as % w/w),"[4]; 6 months, 30° C.",0.206 % w/w
same,Tazarotene (as % w/w),"[4]; 6 months, 40° C.",0.205 % w/w
same,Tazarotene (as % w/w),"[4]; 90 days, 25° C.",0.204 % w/w
same,Tazarotene (as % w/w),"[4]; 90 days, 30° C.",0.208 % w/w
same,Tazarotene (as % w/w),"[4]; 90 days, 40° C.",0.208 % w/w
same,Tazarotene (as % w/w),"[5]; 6 months, 6° C.",0.108 % w/w
same,Tazarotene (as % w/w),"[5]; 6 months, 25° C.",0.081 % w/w
same,Tazarotene (as % w/w),"[5]; 6 months, 30° C.",0.070 % w/w
same,Tazarotene (as % w/w),"[5]; 6 months, 40° C.",0.009 % w/w
same,Tazarotene (as % w/w),"[5]; 90 days, 6° C.",0.106 % w/w
same,Tazarotene (as % w/w),"[5]; 90 days, 25° C.",0.088 % w/w
same,Tazarotene (as % w/w),"[5]; 90 days, 30° C.",0.085 % w/w
same,Tazarotene (as % w/w),"[5]; 90 days, 40° C.",0.044 % w/w
same,Tazarotene (as % w/w),"[6]; 2 weeks, 6° C.",0.099 % w/w
same,Tazarotene (as % w/w),"[6]; 2 weeks, 25° C.",0.090 % w/w
same,Tazarotene (as % w/w),"[6]; 2 weeks, 30° C.",0.090 % w/w
same,Tazarotene (as % w/w),"[6]; 2 weeks, 40° C.",0.085 % w/w
same,Tazarotene (as % w/w),"[6]; 6 months, 6° C.",0.096 % w/w
same,Tazarotene (as % w/w),"[6]; 6 months, 25° C.",0.091 % w/w
same,Tazarotene (as % w/w),"[6]; 6 months, 30° C.",0.088 % w/w
same,Tazarotene (as % w/w),"[6]; 6 months, 40° C.",None Detected
same,Tazarotene (as % w/w),"[6]; 90 days, 6° C.",0.102 % w/w
same,Tazarotene (as % w/w),"[6]; 90 days, 25° C.",0.090 % w/w
same,Tazarotene (as % w/w),"[6]; 90 days, 30° C.",0.089 % w/w
same,Tazarotene (as % w/w),"[6]; 90 days, 40° C.",0.081 % w/w
same,Tazarotene (as % w/w),"[7]; 6 months, 6° C.",0.104 % w/w
same,Tazarotene (as % w/w),"[7]; 6 months, 25° C.",0.089 % w/w
same,Tazarotene (as % w/w),"[7]; 6 months, 30° C.",0.089 % w/w
same,Tazarotene (as % w/w),"[7]; 6 months, 40° C.",0.003 % w/w
same,Tazarotene (as % w/w),"[7]; 90 days, 6° C.",0.103 % w/w
same,Tazarotene (as % w/w),"[7]; 90 days, 25° C.",0.092 % w/w
same,Tazarotene (as % w/w),"[7]; 90 days, 30° C.",0.090 % w/w
same,Tazarotene (as % w/w),"[7]; 90 days, 40° C.",0.071 % w/w
same,Tazarotene (as % w/w),[8]; 6° C.,0.099 % w/w
same,Tazarotene (as % w/w),[8]; 25° C.,0.097 % w/w
same,Tazarotene (as % w/w),[8]; 30° C.,0.079 % w/w
same,Tazarotene (as % w/w),[8]; 40° C.,0.057 % w/w
same,Tazarotene (as % w/w),"[9]; 60 days, 6° C.",0.11 % w/w
same,Tazarotene (as % w/w),"[9]; 60 days, 25° C.",0.109 % w/w
same,Tazarotene (as % w/w),"[9]; 60 days, 30° C.",0.105 % w/w
same,Tazarotene (as % w/w),"[9]; 60 days, 40° C.",0.107 % w/w
same,Tazarotene (as % w/w),"[9]; 90 days, 6° C.",0.107 % w/w
same,Tazarotene (as % w/w),"[9]; 90 days, 25° C.",0.111 % w/w
same,Tazarotene (as % w/w),"[9]; 90 days, 30° C.",0.108 % w/w
same,Tazarotene (as % w/w),"[9]; 90 days, 40° C.",0.116 % w/w
same,Tazarotene (as % w/w),"[10]; 2 weeks, 6° C.",0.106 % w/w
same,Tazarotene (as % w/w),"[10]; 2 weeks, 25° C.",0.098 % w/w
same,Tazarotene (as % w/w),"[10]; 2 weeks, 40° C.",0.089 % w/w
same,Tazarotene (as % w/w),"[10]; 6 months, 6° C.",0.107 % w/w
same,Tazarotene (as % w/w),"[10]; 6 months, 25° C.",0.093 % w/w
same,Tazarotene (as % w/w),"[10]; 6 months, 40° C.",0.014 % w/w
same,Tazarotene (as % w/w),"[10]; 30 days, 6° C.",0.105 % w/w
same,Tazarotene (as % w/w),"[10]; 30 days, 25° C.",0.094 % w/w
same,Tazarotene (as % w/w),"[10]; 30 days, 40° C.",0.084 % w/w
same,Tazarotene (as % w/w),"[10]; 90 days, 6° C.",0.106 % w/w
same,Tazarotene (as % w/w),"[10]; 90 days, 25° C.",0.093 % w/w
same,Tazarotene (as % w/w),"[10]; 90 days, 40° C.",0.086 % w/w
same,Tazarotene (as % w/w),"[11]; 6 months, 6° C.",0.106 % w/w
same,Tazarotene (as % w/w),"[11]; 6 months, 25° C.",0.088 % w/w
same,Tazarotene (as % w/w),"[11]; 6 months, 30° C.",0.083 % w/w
same,Tazarotene (as % w/w),"[11]; 6 months, 40° C.",0.004 % w/w
same,Tazarotene (as % w/w),"[11]; 90 days, 6° C.",0.103 % w/w
same,Tazarotene (as % w/w),"[11]; 90 days, 25° C.",0.093 % w/w
same,Tazarotene (as % w/w),"[11]; 90 days, 30° C.",0.087 % w/w
same,Tazarotene (as % w/w),"[11]; 90 days, 40° C.",0.051 % w/w
same,Tazarotene (as % w/w),[12]; 6° C.,0.101 % w/w
same,Tazarotene (as % w/w),[12]; 25° C.,0.102 % w/w
same,Tazarotene (as % w/w),[12]; 30° C.,0.104 % w/w
same,Tazarotene (as % w/w),[12]; 40° C.,0.103 % w/w
